In test [1] the test system is MCF7. The experiment in a line: Cytotoxicity against human MCF7 cells at 5x10'-5 M to 8x10'-8 M after 72 hrs by CellTiter-Glo assay. It is filed as functional, cell-based.
Test [2] has as its target T1, Transcription intermediary factor 1-alpha (Homo sapiens, UniProt O15164).
T1 sequence (O15164 whole entry): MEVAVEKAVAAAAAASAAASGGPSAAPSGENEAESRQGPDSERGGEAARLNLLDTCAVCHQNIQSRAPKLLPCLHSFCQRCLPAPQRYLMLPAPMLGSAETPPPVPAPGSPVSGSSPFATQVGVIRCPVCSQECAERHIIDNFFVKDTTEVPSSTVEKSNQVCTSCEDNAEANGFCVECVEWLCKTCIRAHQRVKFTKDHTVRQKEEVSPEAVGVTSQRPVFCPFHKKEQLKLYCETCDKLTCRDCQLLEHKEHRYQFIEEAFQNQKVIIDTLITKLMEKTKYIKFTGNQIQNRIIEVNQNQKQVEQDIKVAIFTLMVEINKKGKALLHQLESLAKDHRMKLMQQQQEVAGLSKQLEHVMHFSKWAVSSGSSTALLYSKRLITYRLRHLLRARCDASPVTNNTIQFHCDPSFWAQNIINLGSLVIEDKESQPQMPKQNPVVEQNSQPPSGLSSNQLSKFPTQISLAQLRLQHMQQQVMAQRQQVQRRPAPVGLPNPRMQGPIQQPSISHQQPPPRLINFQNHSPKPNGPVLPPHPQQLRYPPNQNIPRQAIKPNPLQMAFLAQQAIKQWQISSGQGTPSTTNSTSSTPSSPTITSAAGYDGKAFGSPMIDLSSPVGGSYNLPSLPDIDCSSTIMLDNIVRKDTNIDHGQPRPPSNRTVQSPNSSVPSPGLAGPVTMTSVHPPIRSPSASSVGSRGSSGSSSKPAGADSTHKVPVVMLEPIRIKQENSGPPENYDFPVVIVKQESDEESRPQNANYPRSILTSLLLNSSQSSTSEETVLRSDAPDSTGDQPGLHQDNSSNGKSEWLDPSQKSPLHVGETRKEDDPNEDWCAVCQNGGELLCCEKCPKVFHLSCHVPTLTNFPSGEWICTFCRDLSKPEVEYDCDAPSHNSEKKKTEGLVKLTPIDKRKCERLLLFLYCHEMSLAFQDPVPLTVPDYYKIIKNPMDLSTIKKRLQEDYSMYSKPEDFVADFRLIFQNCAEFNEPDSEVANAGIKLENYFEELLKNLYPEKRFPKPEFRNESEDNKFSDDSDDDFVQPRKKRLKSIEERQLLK
The experiment in a line: Inhibition of N-terminal His6-SUMO-1-tagged recombinant human TRIM24 bromodomain expressed in Escherichia coli BL21(DE3)-R3-pRARE2 cells by Alpha Screen assay.

Test [3] has as its target T2, Peregrin (Homo sapiens, UniProt P55201).
T2 sequence (P55201 whole entry): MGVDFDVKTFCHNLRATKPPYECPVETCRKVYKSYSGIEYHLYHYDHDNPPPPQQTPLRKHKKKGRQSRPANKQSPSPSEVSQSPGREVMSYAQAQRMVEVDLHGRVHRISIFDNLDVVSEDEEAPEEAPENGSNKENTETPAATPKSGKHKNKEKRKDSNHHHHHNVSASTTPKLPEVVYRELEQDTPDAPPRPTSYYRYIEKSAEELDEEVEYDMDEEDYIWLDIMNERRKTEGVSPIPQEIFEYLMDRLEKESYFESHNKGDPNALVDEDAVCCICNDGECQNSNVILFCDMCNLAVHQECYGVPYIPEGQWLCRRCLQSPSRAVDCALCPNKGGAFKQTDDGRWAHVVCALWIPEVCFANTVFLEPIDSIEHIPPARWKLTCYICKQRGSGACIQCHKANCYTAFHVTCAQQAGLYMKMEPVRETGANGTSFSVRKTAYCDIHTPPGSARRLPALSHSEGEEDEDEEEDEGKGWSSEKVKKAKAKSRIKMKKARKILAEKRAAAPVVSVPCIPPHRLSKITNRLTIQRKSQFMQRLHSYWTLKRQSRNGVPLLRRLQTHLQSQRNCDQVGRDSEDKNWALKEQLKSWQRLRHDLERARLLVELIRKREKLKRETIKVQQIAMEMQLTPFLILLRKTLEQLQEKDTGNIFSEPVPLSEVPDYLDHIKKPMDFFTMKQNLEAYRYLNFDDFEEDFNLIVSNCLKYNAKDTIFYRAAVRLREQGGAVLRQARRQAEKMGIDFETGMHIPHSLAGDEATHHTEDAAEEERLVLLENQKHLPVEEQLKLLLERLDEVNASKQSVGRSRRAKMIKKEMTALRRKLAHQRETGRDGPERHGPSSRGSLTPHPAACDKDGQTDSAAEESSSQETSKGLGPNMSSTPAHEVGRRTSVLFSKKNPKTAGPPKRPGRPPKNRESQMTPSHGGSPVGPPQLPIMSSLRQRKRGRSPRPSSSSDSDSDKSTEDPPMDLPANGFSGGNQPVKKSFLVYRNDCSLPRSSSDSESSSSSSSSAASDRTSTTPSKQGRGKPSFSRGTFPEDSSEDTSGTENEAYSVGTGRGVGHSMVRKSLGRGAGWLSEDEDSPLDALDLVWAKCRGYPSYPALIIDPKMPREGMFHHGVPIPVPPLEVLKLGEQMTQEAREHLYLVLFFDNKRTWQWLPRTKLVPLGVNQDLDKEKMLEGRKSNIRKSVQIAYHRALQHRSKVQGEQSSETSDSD
The experiment in a line: Inhibition of BRPF1B (unknown origin) by Alpha Screen assay. A general note: In Alpha technology, singlet oxygen from a donor bead excites a nearby acceptor bead.

Test [4] has as its target T1, Transcription intermediary factor 1-alpha. In words: Binding affinity to N-terminal His6-SUMO-1-tagged recombinant human TRIM24 bromodomain expressed in Escherichia coli BL21(DE3)-R3-pRARE2 cells by isothermal titration calorimetry. Background: Isothermal titration calorimetry measures the heat released or taken up as one component is titrated into another.
Test [5] deals with RCH-ACV. The experiment in a line: Cytotoxicity against human RCH-ACV cells at 5x10'-5 M to 8x10'-8 M after 72 hrs by CellTiter-Glo assay. Type of test: functional, cell-based. (In general: ATP-based viability assays read luminescence as a measure of living cells.)
The target in test [6] is T2, Peregrin. The experiment in a line: Binding affinity to BRPF1B (unknown origin) by isothermal titration calorimetry.

Calls of active or inactive are those of the source. The rule behind the calls is not given here.

For orientation: IC50 means the point on the concentration scale where inhibition reaches its midpoint. The Kd is the free concentration of one partner at which half of the binding sites on the other are occupied at equilibrium, for simple one-to-one binding.

Regarding `COc1ccc(Oc2cc3c(cc2NS(=O)(=O)c2ccc(OC)c(OC)c2)n(C)c(=O)n3C)cc1`, the outcome in test [1] and in test [5] was inactive. The IC50 in test [2] turned out to be 430 nM; in test [3], 340 nM. The Kd in test [4] was found to be 222 nM; in test [6], 137 nM.

These data come from ChEMBL document CHEMBL3769336, “Discovery of a Chemical Tool Inhibitor Targeting the Bromodomains of TRIM24 and BRPF” (J Med Chem, 2016).
